Experimental data taken from paper PMC4071299 (Toxicology Reports, 2014).
Where two headings read alike, the source gives them in different places.

What was measured:
[1] = tested on: MCF-7 cells; conditions: cited from earlier work
[2] = Plasma toxicokinetics of free TBBPA after oral or IV administration; format: in vivo, female Crl:WI(Han) rats; conditions: for AUC: free TBBPA in plasma; for half-life: iv, 25 mg/kg
[3] = 20 mg/kg, male F-344 rats; cited from earlier work
[4] = tested on: estradiol sulfation; conditions: in vitro; cited from earlier work
[5] = tested on: human transthyretin; conditions: cited from earlier work
[6] = tested on: progesterone receptor (PR); conditions: transfected yeast; cited from earlier work
[7] = tested on: estrogen sulfotransferase SULT1E1; conditions: crystallographic studies; cited from earlier work
[8] = Disposition and elimination of [14C]-radioactivity after single oral; format: in vivo, female Crl:WI(Han) rats
[9] = tested on: rats; conditions: cited from earlier work
[10] = tested on: rat thyroid hormone receptor; conditions: cited from earlier work
[11] = Biliary elimination in bile-duct cannulated rats after oral dose; format: in vivo, female Crl:WI(Han) rats; conditions: oral […] mg/kg, 6 h
[12] = tested on: rats; conditions: single dose by gavage to rats; cited from earlier work
[13] = Elimination and distribution after repeated oral administration; format: in vivo, female Crl:WI(Han) rats; conditions: […] mg/kg for 5 days
[14] = tested on: MtT/E-2 cells; conditions: lower extent than bisphenol A; cited from earlier work
[15] = tested on: TTR; conditions: cited from earlier work
[16] = Disposition of [14C]-radioactivity after IV administration of TBBPA; format: in vivo, female Crl:WI(Han) rats; conditions: IV 25 mg/kg
[17] = male SD rats, cited from earlier work; for Cmax: read-out: plasma Cmax

For `COC(C)(C)c1cc(Br)c(O)c(Br)c1` [2,6-dibromo-4-[2-methoxypropane-2-yl]-phenol], the estrogenic activity [1] is listed as “estrogenic activity”.

For `CC(C)(O)c1cc(Br)c(O)c(Br)c1` [2,6-dibromo-4-[2-hydroxypropane-2-yl]-phenol], the estrogenic activity [1] is listed as “estrogenic activity”.

In the case of `CC(C)(c1cc(Br)c(O)c(Br)c1)c1cc(Br)c(O)c(Br)c1` [TBBPA, 2,2′,6,6′-Tetrabromo-4,4′-isopropylidene diphenol], the “administered radioactivity remaining in plasma” value ([2]; IV 25 mg/kg, 6 h post dose) is reported as ~2%, the AUC ([2]; IV (25 mg/kg)) is reported as 4286 nmol·min/mL and the AUC ([2]; Oral ([…] mg/kg)) is reported as 1729 nmol·min/mL. For the same molecule, the half-life ([2]; female, Crl:WI(Han), rat, plasma, distribution half-life, IV 25 mg/kg, two-compartment model) was 2 min, the half-life ([2]; female, Crl:WI(Han), rat, plasma, terminal half-life, IV 25 mg/kg, non-compartmental analyses) was 133 min and the half-life ([2]; female, Crl:WI(Han), rat, plasma, terminal half-life, IV 25 mg/kg, two-compartment model) was 22 min. For the same molecule, the Cmax ([2]; female, Crl:WI(Han), rat, plasma, po, 250 mg/kg) was 5.4 µM, the systemic bioavailability [3] was 1.6% and the “effect on estradiol sulfation” value [4] was “inhibitor”. For the same molecule, the binding to transthyretin [5] was “bind”, the PR activity [6] was “antagonist” and the “binding to SULT1E1” value [7] was “high affinity”. The “dose recovery in feces in 72 h” value ([8]; oral 25 mg/kg) was 95.7 ± 3.5%, the “dose recovery in feces in 72 h” value ([8]; oral 1000 mg/kg) was 98.8 ± 2.2% and the “dose recovered in urine” value ([8]; oral 25, 250 or 1000 mg/kg, 72 h) was 0.2–2 % of dose. The “dose recovery in feces in 72 h” value ([8]; oral […] mg/kg) was 94.3 ± 3.6%, the “radioactivity in tissues at 24 h” value ([8]; oral […] mg/kg) was < 2% and the “[14C]-radioactivity, blood” value ([8]; oral […] mg/kg, 1 h) was 0.6 ± 0.2 % dose. For the same molecule, the “[14C]-radioactivity, blood” value ([8]; oral […] mg/kg, 3 h) was 0.4 ± 0.2 % dose, the “[14C]-radioactivity, feces” value ([8]; oral […] mg/kg, 6 h) was 0.1 ± 0.1 % dose and the “[14C]-radioactivity, urine” value ([8]; oral […] mg/kg, 6 h) was 1.2 ± 0.7 % dose. For the same molecule, the “[14C]-radioactivity, blood” value ([8]; oral […] mg/kg, 24 h) was 0.06 ± 0.05 % dose, the “[14C]-radioactivity, feces” value ([8]; oral […] mg/kg, 24 h) was 82 ± 18 % dose and the “[14C]-radioactivity, large intestine” value ([8]; oral […] mg/kg, 24 h) was 0.3 ± 0.1 % dose. For the same molecule, the “[14C]-radioactivity, urine” value ([8]; oral […] mg/kg, 24 h) was 0.3 ± 0.1 % dose, the “administered [14C]-radioactivity detected in tissues” value ([8]; tissues collected at 72 h following oral doses) was < 0.1% and the “toxicity after intraperitoneal administration” value [9] was “hepatotoxicity and heme metabolism disturbances”. The “binding to thyroid hormone receptor” value [10] was “high affinity”, the “[14C]-radioactivity, bile” value [11] was 6 ± 7 % dose and the LD50 [12] was “greater than 5 g/kg”. For the same molecule, the “terminal dose recovered from feces” value ([13]; 24 h after final ([14C]) dose) was 84 ± 8%, the “dose recovered in urine” value ([13]; 24 h after final dose) was “Less than 1%” and the tissue retention ([13]; 24 h after final dose) was “minimal”. For the same molecule, the cell proliferation [14] was “enhanced proliferation”, the TTR binding [15] was “T4 competitor” and the “administered radioactivity eliminated in feces within 6 h” value [16] was “Approx. 10%”. For the same molecule, the “administered radioactivity eliminated in urine within 6 h” value [16] was ~1%, the “dose recovered in contents of large intestine” value ([16]; 6 h post dose) was ~61% and the “dose recovered in contents of small intestine” value ([16]; 6 h post dose) was “approx. 15%”. For the same molecule, the “[14C]-radioactivity, all other tissues” value ([16]; 6 h post-dose) was “less than 1 % of the administered dose”, the “[14C]-radioactivity, adipose” value ([16]; 6 h post-dosing) was 1 ± 0.8% and the “[14C]-radioactivity, large intestine” value ([16]; 6 h post-dosing) was 3.2 ± 3%. The “[14C]-radioactivity, liver” value ([16]; 6 h post-dosing) was 1.8 ± 0.6%, the “[14C]-radioactivity, small intestine” value ([16]; 6 h post-dosing) was 3.2 ± 3.1% and the estrogenic activity [1] was “estrogenic activity”. The Tmax ([17]; oral 200, 500 and 1000 mg/kg) was 252 to 300 min, the Cmax ([17]; 300 mg/kg) was 103 µM and the Cmax ([17]; oral 200 mg/kg) was 23 µM. The Cmax ([17]; oral 500 mg/kg) was 34 µM and the Cmax ([17]; oral 1000 mg/kg) was 57 µM.
